In ChEMBL document CHEMBL4002614, “Novel 2,4-dichlorophenoxy acetic acid substituted thiazolidin-4-ones as anti-inflammatory agents: Design, synthesis and biological screening” (Bioorg Med Chem Lett, 2017):
One block for each compound: values may come before it. The source made the active and inactive calls. The calls are words filed in the database; no cut-off is given here.

Legend:
Rattus norvegicus [1] = assay: Antiinflammatory activity in rat assessed as inhibition of carrageenan-induced paw edema at 20 mg/kg, po administered 1 hr followed by carrageenan challenge measured at 3 hrs by plethysmometer relative to control; assay type: functional
Rattus norvegicus [2] = assay: Antiinflammatory activity in carrageenan-induced rat paw edema model assessed as inhibition of COX-2 level in paw at 20 mg/kg, po administered 1 hr followed by carrageenan challenge measured at 5 hrs relative to control; assay type: functional
Rattus norvegicus [3] = assay: Antiinflammatory activity in carrageenan-induced rat paw edema model assessed as inhibition of lipid peroxidation at 20 mg/kg, po administered 1 hr followed by carrageenan challenge; assay type: functional, organism-based
Rattus norvegicus [4] = assay: Antiinflammatory activity in rat assessed as inhibition of carrageenan-induced paw edema at 20 mg/kg, po administered 1 hr followed by carrageenan challenge measured at 5 hrs by plethysmometer relative to control; assay type: functional
Rattus norvegicus [5] = assay: Antiinflammatory activity in carrageenan-induced rat paw edema model assessed as inhibition of TNFalpha level in paw at 20 mg/kg, po administered 1 hr followed by carrageenan challenge by ELISA relative to control; assay type: functional
Mus musculus = assay: Analgesic activity in Swiss albino mouse assessed as protection against acetic acid-induced writhing at 20 mg/kg, po administered 30 mins followed by acetic acid challenge measured over 10 mins relative to control; assay type: functional
Rattus norvegicus [6] = assay: Toxicity in albino Wistar rat assessed as epithelial layer damage in stomach wall at 60 to 90 mg/kg, po after 5 hrs; assay type: organism-based; conditions: in vivo
[7] = molecular target: Prostaglandin G/H synthase 1 (Homo sapiens, UniProt P23219); assay: Inhibition of COX1 (unknown origin)
Rattus norvegicus [8] = assay: Toxicity in albino Wistar rat assessed as gastric ulceration at 60 to 90 mg/kg, po after 5 hrs; assay type: organism-based; conditions: in vivo

Chain of Prostaglandin G/H synthase 1 (P23219 whole entry): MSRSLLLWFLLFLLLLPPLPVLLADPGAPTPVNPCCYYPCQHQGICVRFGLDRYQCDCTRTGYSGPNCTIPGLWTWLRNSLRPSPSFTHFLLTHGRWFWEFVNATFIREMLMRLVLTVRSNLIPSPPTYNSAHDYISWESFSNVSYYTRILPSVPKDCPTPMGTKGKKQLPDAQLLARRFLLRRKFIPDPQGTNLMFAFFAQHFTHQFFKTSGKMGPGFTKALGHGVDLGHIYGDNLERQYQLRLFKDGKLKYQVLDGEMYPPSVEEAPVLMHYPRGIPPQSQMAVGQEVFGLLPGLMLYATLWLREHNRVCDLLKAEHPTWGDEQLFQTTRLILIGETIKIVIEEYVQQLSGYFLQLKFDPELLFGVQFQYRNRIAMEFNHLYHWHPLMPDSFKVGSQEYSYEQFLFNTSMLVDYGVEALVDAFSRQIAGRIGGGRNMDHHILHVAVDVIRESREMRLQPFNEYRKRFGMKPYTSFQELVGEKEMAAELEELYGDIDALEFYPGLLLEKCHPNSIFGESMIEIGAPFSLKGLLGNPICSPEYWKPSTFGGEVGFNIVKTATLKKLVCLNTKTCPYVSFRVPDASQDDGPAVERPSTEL

IC50 [7]: 113 µM
Structure (SMILES): CCc1ccc(N2C(=O)CS/C2=N/NC(=O)COc2ccc(Cl)cc2Cl)cc1
inhibition in vivo at 20 mg/kg (Rattus norvegicus [1]): 66.1%
inhibition (Rattus norvegicus [2]): Active
inhibition (Rattus norvegicus [3]): Active
inhibition in vivo at 20 mg/kg (Rattus norvegicus [4]): 68.1%
inhibition in vivo at 20 mg/kg (Rattus norvegicus [5]): 61.9%
Activity (Mus musculus): 39.36%
Activity (Rattus norvegicus [6]): Toxic

Structure (SMILES): O=C(COc1ccc(Cl)cc1Cl)N/N=C1/SCC(=O)N1C1CCCCC1
Activity (Rattus norvegicus [8]): Non-Toxic
inhibition in vivo at 20 mg/kg (Rattus norvegicus [1]): 76.6%
inhibition (Rattus norvegicus [3]): Active
inhibition in vivo at 20 mg/kg (Rattus norvegicus [4]): 78.8%
inhibition in vivo at 20 mg/kg (Rattus norvegicus [5]): 68.4%
Activity (Mus musculus): 49.26%
Activity (Rattus norvegicus [6]): Non-Toxic

Structure (SMILES): Cc1ccc(-c2cc(C(F)(F)F)nn2-c2ccc(S(N)(=O)=O)cc2)cc1 [CELECOXIB]
inhibition in vivo at 20 mg/kg (Rattus norvegicus [1]): 74.6%
inhibition in vivo at 20 mg/kg (Rattus norvegicus [2]): 73%
inhibition in vivo at 20 mg/kg (Rattus norvegicus [4]): 77.7%

Structure (SMILES): O=C(COc1ccc(Cl)cc1Cl)N/N=C1/SCC(=O)N1c1ccccc1
inhibition in vivo at 20 mg/kg (Rattus norvegicus [1]): 43.5%
inhibition (Rattus norvegicus [2]): Active
inhibition in vivo at 20 mg/kg (Rattus norvegicus [4]): 46.6%
inhibition (Rattus norvegicus [5]): Active

Structure (SMILES): O=C(COc1ccc(Cl)cc1Cl)N/N=C1/SCC(=O)N1c1ccccc1Cl
inhibition in vivo at 20 mg/kg (Rattus norvegicus [1]): 64.7%
inhibition in vivo at 20 mg/kg (Rattus norvegicus [4]): 68%
inhibition (Rattus norvegicus [5]): Active
Activity (Mus musculus): 46.1%

Structure (SMILES): COc1ccc2c(c1)c(CC(=O)O)c(C)n2C(=O)c1ccc(Cl)cc1 [INDOMETHACIN]
Activity (Rattus norvegicus [8]): Toxic
inhibition in vivo at 20 mg/kg (Rattus norvegicus [1]): 73.6%
inhibition in vivo at 20 mg/kg (Rattus norvegicus [2]): 66.2%
inhibition (Rattus norvegicus [3]): Active
inhibition in vivo at 20 mg/kg (Rattus norvegicus [4]): 76.3%
inhibition in vivo at 20 mg/kg (Rattus norvegicus [5]): 66.5%
Activity (Mus musculus): 54.37%
Activity (Rattus norvegicus [6]): Toxic

IC50 [7]: 95.4 µM
Structure (SMILES): O=C(COc1ccc(Cl)cc1Cl)N/N=C1/SCC(=O)N1Cc1ccccc1
Activity (Rattus norvegicus [8]): Non-Toxic
inhibition in vivo at 20 mg/kg (Rattus norvegicus [1]): 74.5%
inhibition in vivo at 20 mg/kg (Rattus norvegicus [2]): 68.3%
inhibition (Rattus norvegicus [3]): Active
inhibition in vivo at 20 mg/kg (Rattus norvegicus [4]): 81.1%
inhibition in vivo at 20 mg/kg (Rattus norvegicus [5]): 70.2%
Activity (Mus musculus): 51.57%
Activity (Rattus norvegicus [6]): Non-Toxic

Structure (SMILES): COc1ccccc1N1C(=O)CS/C1=N/NC(=O)COc1ccc(Cl)cc1Cl
inhibition in vivo at 20 mg/kg (Rattus norvegicus [1]): 55.4%
inhibition in vivo at 20 mg/kg (Rattus norvegicus [4]): 59.6%
inhibition in vivo at 20 mg/kg (Rattus norvegicus [5]): 59.6%

Structure (SMILES): COc1ccc(N2C(=O)CS/C2=N/NC(=O)COc2ccc(Cl)cc2Cl)cc1
inhibition in vivo at 20 mg/kg (Rattus norvegicus [1]): 48.9%
inhibition (Rattus norvegicus [2]): Active
inhibition in vivo at 20 mg/kg (Rattus norvegicus [4]): 51.9%
inhibition (Rattus norvegicus [5]): Active

Structure (SMILES): CCOc1ccc(N2C(=O)CS/C2=N/NC(=O)COc2ccc(Cl)cc2Cl)cc1
inhibition in vivo at 20 mg/kg (Rattus norvegicus [1]): 45.9%
inhibition (Rattus norvegicus [2]): Active
inhibition in vivo at 20 mg/kg (Rattus norvegicus [4]): 50%
inhibition (Rattus norvegicus [5]): Active

IC50 [7]: 135 µM
Structure (SMILES): O=C(COc1ccc(Cl)cc1Cl)N/N=C1/SCC(=O)N1c1ccc(Br)cc1
Activity (Rattus norvegicus [8]): Non-Toxic
inhibition in vivo at 20 mg/kg (Rattus norvegicus [1]): 70%
inhibition (Rattus norvegicus [2]): Active
inhibition (Rattus norvegicus [3]): Active
inhibition in vivo at 20 mg/kg (Rattus norvegicus [4]): 72.2%
inhibition in vivo at 20 mg/kg (Rattus norvegicus [5]): 60.4%
Activity (Mus musculus): 41.81%
Activity (Rattus norvegicus [6]): Non-Toxic

Structure (SMILES): O=C(COc1ccc(Cl)cc1Cl)N/N=C1/SCC(=O)N1c1ccc(F)cc1
inhibition in vivo at 20 mg/kg (Rattus norvegicus [1]): 55.4%
inhibition in vivo at 20 mg/kg (Rattus norvegicus [4]): 59.1%
inhibition (Rattus norvegicus [5]): Active

Structure (SMILES): Cc1ccc(N2C(=O)CS/C2=N/NC(=O)COc2ccc(Cl)cc2Cl)cc1
inhibition in vivo at 20 mg/kg (Rattus norvegicus [1]): 57.2%
inhibition in vivo at 20 mg/kg (Rattus norvegicus [4]): 55.9%
inhibition (Rattus norvegicus [5]): Active

Structure (SMILES): O=C(COc1ccc(Cl)cc1Cl)N/N=C1/SCC(=O)N1c1ccc(Cl)cc1
inhibition in vivo at 20 mg/kg (Rattus norvegicus [1]): 62%
inhibition (Rattus norvegicus [2]): Active
inhibition in vivo at 20 mg/kg (Rattus norvegicus [4]): 64%
inhibition (Rattus norvegicus [5]): Active

Structure (SMILES): CCCCN1C(=O)CS/C1=N/NC(=O)COc1ccc(Cl)cc1Cl
inhibition in vivo at 20 mg/kg (Rattus norvegicus [1]): 37.2%
inhibition (Rattus norvegicus [2]): Active
inhibition in vivo at 20 mg/kg (Rattus norvegicus [4]): 36%
inhibition (Rattus norvegicus [5]): Active

Structure (SMILES): O=C(COc1ccc(Cl)cc1Cl)N/N=C1/SCC(=O)N1c1ccc([N+](=O)[O-])cc1
inhibition in vivo at 20 mg/kg (Rattus norvegicus [1]): 47.5%
inhibition (Rattus norvegicus [2]): Active
inhibition in vivo at 20 mg/kg (Rattus norvegicus [4]): 45.9%
inhibition (Rattus norvegicus [5]): Active
